The values that follow come from article PMC11768549, “Optimization of Toxicity, Biodegradability, and Skin Irritation in Formulations Containing Mixtures of Anionic and Nonionic Surfactants Combined with Silica Nanoparticles” (Toxics, 2025).

Series [1] deals with Vibrio fischeri. Briefly: Luminescence inhibition assay in Vibrio fischeri (ISO 11348-2:2007, LumiStox 300). The class given is cell-based. The conditions noted are these: 50% bioluminescence inhibition after 30 min exposure, pH 7.0, 2% NaCl; mixtures 1:1. The method, then: The toxicity measurement is based on the luminous intensity of marine bacteria of the strain V. fischeri NRRLB11177 after exposure to a toxic substance. Measurements were taken using the LumiStox 300 system, which includes a bioluminescence measuring instrument and an incubation unit, in accordance with the ISO 11348-2:2007 guideline. The luminescent bacteria, which were dehydrated and frozen at −18 °C, were reactivated with a suspension provided by Dr. Lange. The assay conditions were maintained at a pH of 7.0 with a NaCl concentration of 2%. Triplicate measurements were taken at incubation times of 30 min. The toxicity values were determined as EC50, representing the surfactant concentrations that inhibit 50% of the bioluminescence after 30 min of exposure. If necessary, the sample was filtered prior to the assay.
(§1) The toxicity of individual anionic and nonionic surfactants on V. fischeri and L. sativum was evaluated, and their EC50 results are presented in Table 2. For V. fischeri, toxicity values are expressed as EC50 values, determined using a logarithmic plot of sample concentration versus the percentage reduction in light intensity after a 30-min exposure period. This indicates the concentration at which there is a 50% reduction in bioluminescence. Similarly, for L. sativum, toxicity values are also expressed as EC50 values, which represent the concentration at which 50% growth inhibition is observed. This was measured by assessing the root and stem elongation after a 72-hour exposure period. The specific growth parameters, such as root length reduction, were used to determine the EC50 values.
(§2) The model of toxic units (MTU) was applied to quantify the interactions between toxicants in binary surfactant mixtures: FAE-R12–14E11 with EC-R12–14E3, FAE-R12–14E11 with EC-R12–14E10, and FAE-R12–14E11 with EC-R8E5. This approach helps predict whether the principles of concentration or response addition apply. The toxic unit for each component in the mixture (TUi) was calculated as the ratio between the concentration of the toxicant in the mixture [i] and its half-maximal effective concentration (EC50i) (Equation (7)). The total toxic unit of the mixture (TUmix) is the sum of the TUi values of the individual components […].(7) TUi=i/EC50i (8) TUmix=TUA+TUB=A/EC50A+B/EC50B
(§3) If the toxicants act independently (response addition), the predicted toxic unit (TUr) is calculated using Equations (9) and (10). If TUr ≈ TUmix, response addition can be expected.(9) If TUA>TUB TUr=1+TUB/TUA (10) If TUA<TUB TUr=1+TUA/TUB

Series [2] relates to Lepidium sativum. Briefly: Germination test on Lepidium sativum seeds (ISO 18763:2016), root and stem elongation. The class given is in vivo. The conditions noted are these: 72 h, 25 °C, dark, mixtures 1:1; for EC50, L. sativum (Root): 50% root growth inhibition; for EC50, L. sativum (Stem): 50% stem growth inhibition. As to the method:
The germination test on L. sativum (cress) seeds is a static test of acute toxicity. This test allows for evaluating the phytotoxic effects produced in the seed germination process and the development of seedlings during the first days of growth (72 h). The garden cress test with L. sativum was carried out according to ISO-18763:2016 [28]. The inhibition in the elongation of the root and stem was determined.
Briefly, 25 L. sativum seeds were placed in a well-distributed manner in Petri dishes (100 mm Ø) containing filter paper saturated with 5 mL of the test solution. Distilled water was used as a control, and zinc (II) was used as a toxic reference compound. Each Petri dish was covered and sealed to prevent moisture loss. For 72 h, at 25 °C, and in the absence of light, the different samples were incubated in triplicate. Once the incubation was completed, the length of the root and stem of each germinated seed was measured with the help of graph paper. The inhibition of the root and stem growth by the test solutions was assessed in comparison with the control.
as §1, §2, §3

The nature of series [3]: Static biodegradation test (OECD 301E), DOC removal. The conditions noted are these: initial 25 mg·L^−1; for B (surfactant biodegradability): percentage biodegraded after 50 h of assay; for t1/2 (half-life of biodegradation): time for 50% decrease of substrate, graphical. As to the method:
The static biodegradation tests were conducted according to the OECD 301E guidelines, which focus on the removal of organic compounds measured as dissolved organic carbon (DOC). Solutions of the surfactant and surfactant–co-surfactant mixtures, serving as the sole carbon source for microorganisms, were tested in a mineral medium inoculated and incubated under aerobic conditions in the dark for 28 days. The initial concentration of the test substance for surfactant and surfactant–co-surfactant mixtures was set at 25 mg·L^−1.
The surfactant solution, for which biodegradability was to be determined, was inoculated with 0.5 mL of water from the secondary treatment stage of a sewage treatment plant (STP) operating with activated sludge (plus code: 597G+W2, Granada, Spain). The biodegradation process was monitored by measuring the residual surfactant concentration over time through DOC determinations in samples, filtered through a 0.45 µm Millipore membrane, using the total organic carbon (TOC) analyser Shimadzu VCSH/CSH (Shimadzu Co., Kyoto, Japan). Reference assays were performed with an easily biodegradable surfactant (linear alkylbenzene sulfonate) to determine the activity of the microbial population present in the test medium. […] All samples were tested in duplicate. The experimental setup included two flasks for the blank, two for the reference surfactant, two for the abiotic assay, and two for each of the surfactant concentrations tested.
The biodegradation of surfactants and their binary mixtures was assessed under aerobic conditions following the OECD 301E guidelines for ready biodegradability. The process was tracked by measuring the dissolved organic carbon (DOC) in the samples over time. […] Abiotic control tests, using HgCl2 to inhibit biological activity, confirmed that surfactant concentrations remained at nearly 100% throughout the degradation period. […] Figure 1 illustrates the progression of ultimate biodegradation of the surfactants and binary mixtures over the testing period. The assays were initiated with surfactant concentrations of 25 mg·L^−1.
To compare and quantify the biodegradation test, two key parameters of the biodegradation profiles were defined and analysed: (a) Half-life (t1/2) is the time required for the substrate concentration to decrease by 50% from the start of the biodegradation process. This value is determined using graphical methods based on the biodegradation curve. (b) Surfactant biodegradability (B) is defined as the percentage of surfactant that is biodegraded after 50 h of assay. Half-time and surfactant biodegradability results are shown in Table 5, together with mineralization values obtained using Equation (11).(11) Mineralization (%)=DOCi− [DOC]f/ [DOC]i·100 where
• DOCi is the dissolved organic carbon at the beginning of the test; • DOCf is the dissolved organic carbon at the end of the test.

On the set-up of series [4]: method as in doi:10.1016/j.molliq.2023.122021. As to conditions: cited from earlier work; for CMC (±SD): critical micelle concentration; for HLB: hydrophilic–lipophilic balance.
Series [5] concerns zein. Briefly: Irritation potential using the modified zein method (zein number). Details: species or system corn. As to conditions: room temperature; for ZN 0.5%: each component 0.5% wt.; for ZN 1%: each component 1% wt. As to the method: The irritant potential of surfactants, their mixtures, and the addition of silica nanoparticles was assessed using a modified zein method. This method is used to assess the potential irritation of chemicals or cosmetics on the skin. It is based on the interaction of a substance with proteins, particularly with the protein zein, which is a protein derived from corn. The modified zein method is recognized as an in vitro alternative to predict dermal irritation without the need to perform tests on animals. This method involves three stages to determine the amount of protein (zein) solubilized in a surfactant-containing solution: (1) zein denaturation, (2) oxidation and mineralization of organic matter, and (3) nitrate content measurement. All experiments were conducted at room temperature and performed in triplicate. For these tests, the final concentration of each component, whether pure or in a mixture, was set at 0.5% and 1% wt. These concentrations reflect typical dosages found in cosmetic, detergent, and personal hygiene products that come into direct contact with the skin. The zein number (ZN), expressed as mg of nitrogen (N) released per 100 g of surfactant solution, was calculated using the following formula: ZN = c/10(2) where c is the nitrogen concentration measured spectrophotometrically in ppm (mg·1000 mL^−1). Given that the density of the testing solution is 1 g·mL^−1, c is ultimately expressed as mg·1000 g^−1. Two control cases were used for validation: a negative control with deionized water and a positive control with 1% wt. sodium lauryl sulphate (SLS), a well-known surfactant with high irritant potential. The zein number (ZN) (Section 2.3) provides an indication of surfactant-induced potential skin irritation. According to the scale established by, surfactants can be classified as non-irritant, moderately irritant, irritant, or strongly irritant. The final concentration of each component, whether individual or in a mixture, was set at 0.5% and 1% wt.

As for “Laureth-11 Carboxylic Acid [EC-R12–14E10]”, in series [1], the “EC50, V. fischeri” value was determined as 14.18 ± 4.32 µg/mL. For the same substance, in series [2], the “EC50, L. sativum (Root)” value worked out at 32.02 ± 8.90 µg/mL and the “EC50, L. sativum (Stem)” value was 60.11 ± 6.52 µg/mL. Further, in series [3], the “B (surfactant biodegradability)” value was 10.30% and the “t1/2 (half-life of biodegradation)” value was determined as 130.50 h. Moreover, in series [4], the “CMC (±SD)” value was 70.8 ± 7.2 [17] mg·L^−1 and the HLB is 9.5 [17].
With Laureth-11/Myreth-11 [FAE-R12–14E11], the “EC50, V. fischeri” value in series [1] worked out at 13.26 ± 3.26 µg/mL. Further, in series [2], the “EC50, L. sativum (Root)” value was determined as 338.17 ± 13.21 µg/mL and the “EC50, L. sativum (Stem)” value was 97.15 ± 7.14 µg/mL. Moreover, in series [3], the “B (surfactant biodegradability)” value is 2.40% and the “t1/2 (half-life of biodegradation)” value came to 185.80 h. Further, in series [4], the “CMC (±SD)” value is 18.5 ± 2.3 [17] mg·L^−1 and the HLB was 14.3 [17].
For Capryleth-6 Carboxylic Acid [EC-R8E5], the “EC50, V. fischeri” value in series [1] is 32.76 ± 3.60 µg/mL. In addition, in series [2], the “EC50, L. sativum (Root)” value was 53.61 ± 7.20 µg/mL and the “EC50, L. sativum (Stem)” value came out at 64.77 ± 6.50 µg/mL. In addition, in series [3], the “B (surfactant biodegradability)” value amounted to 9.40% and the “t1/2 (half-life of biodegradation)” value is 118.20 h. In series [5], the “ZN 0.5%” value is on record as 49.15 ± 3.60 mg of nitrogen (N) released per 100 g of surfactant solution and the “ZN 1%” value is 157.9 ± 7.40 mg of nitrogen (N) released per 100 g of surfactant solution. Moreover, in series [4], the “CMC (±SD)” value was 97.9 ± 6.5 [17] mg·L^−1 and the HLB was 11–14 [17].
Consider Laureth-4 Carboxylic Acid [EC-R12–14E3], for which the “EC50, V. fischeri” value in series [1] is 3.58 ± 1.28 µg/mL. In addition, in series [2], the “EC50, L. sativum (Root)” value was 35.40 ± 4.80 µg/mL and the “EC50, L. sativum (Stem)” value came out at 93.25 ± 8.90 µg/mL. Besides, in series [3], the “B (surfactant biodegradability)” value was determined as 1.25% and the “t1/2 (half-life of biodegradation)” value amounted to 330.90 h. For the same substance, in series [5], the “ZN 0.5%” value was 152.92 ± 7.25 mg of nitrogen (N) released per 100 g of surfactant solution and the “ZN 1%” value is listed as 183.5 ± 5.60 mg of nitrogen (N) released per 100 g of surfactant solution. In series [4], the “CMC (±SD)” value is 33.7 ± 3.1 [17] mg·L^−1 and the HLB is 5.5 [17].
